Data: patent US4341893A, “Quinazoline derivatives” (Synthelabo, priority 1976, dated 1982)

Columns and labels:
[1] = LD 50 rat (Table II); conditions: in vivo
[2] = system: spontaneously hypertensive male rats (Okamoto strain); test: Anti-hypertensive effect in spontaneously hypertensive rats, systolic pressure; format: in vivo; conditions: 10 mg/kg perorally, spontaneously hypertensive rat
Procedure: Experiments were carried out on spontaneously hypertensive male rats (Okamoto strain), which were at least 14 weeks old. The systolic pressure was measured according to the technique described by Gerold and Tschirky (Arzneim.-Forsch. 1968, 18, 1285). The compounds were administered orally at a dose of 1 or 10 mg/kg.
Table II collects together the results obtained which are expressed in percent variation of the initial pressure, 2 hours, 4 hours and 24 hours after administration of the compound (I).

| Compound | LD50 ([1]; ip / intraperitoneally) [mg/kg] | % variation of the pressure after 2 hours [2] [%] | % variation of the pressure after 4 hours [2] [%] | % variation of the pressure after 24 hours [2] [%] | LD50 ([1]; po, perorally) [mg/kg] |
| --- | --- | --- | --- | --- | --- |
| COc1cccc(C(=O)C2CCN(c3nc(N)c4cc(OC)c(OC)cc4n3)CC2)c1 [Compound 3, 4-Amino-6,7-dimethoxy-2-[4-(3-methoxybenzoyl)-piperidino]-quinazoline] | ~500 | -32 | -23 | – | – |
| COc1cc2nc(N3CCC(C(=O)c4ccccc4)CC3)nc(N)c2cc1OC [Compound 2] | > 500 | -43 | -32 | -40 | – |
| COc1cc2nc(N(C)CCCN(C)C(=O)c3ccccc3)nc(N)c2cc1OC [Compound 10, N1-(4-amino-6,7-dimethoxy-quinazolinyl-2)-N2-benzoyl-N1 N2-dimethyl-propylenediamine] | – | -23 | -15 | -4 | > 500 |
| COc1cc2nc(N3CCC(C(=O)c4nnc(SC)o4)CC3)nc(N)c2cc1OC [Compound 7, 4-amino-6,7-dimethoxy-2-[4-(5-methylthio-1,3,4-oxadiazole-2-carbonyl)-piperidino]-quinazoline] | – | -24 | -20 | -2 | > 500 |
| COc1cc2nc(NCCCN(C)C(=O)c3ccccc3)nc(N)c2cc1OC [Compound 12, N1-(4-amino-6,7-dimethoxy-quinazolinyl-2)-N2-benzoyl-N2-methyl-propylenediamine] | ~400 | -31 | -23 | – | – |
| COc1cc2nc(N3CCC(C(=O)c4cccs4)CC3)nc(N)c2cc1OC [Compound 6] | > 500 | -27 | -22 | -2 | – |
| COc1cc2nc(N3CCC(C(=O)c4ccc5c(c4)OCO5)CC3)nc(N)c2cc1OC [Compound 1, 4-Amino-6,7-dimethoxy-2-[4-(3,4-methylenedioxybenzoyl)piperidino]-quinazoline] | > 500 | -30 | -32 | -37 | – |
